Conditions: Liquid, Drop weight

O=C=O [carbon dioxide] + O
interfacial tension [mN/m]
Conditions | 2000 kPa | 4000 kPa | 6000 kPa | 8000 kPa | 12000 kPa | 17400 kPa | 27000 kPa
293.15 K | 62.4 | 43.5 | 34.9 | 29.1 | 25.1 | 23.2 | 18.9
298.15 K | 62.1 | 45.1 | 36.2 | 30.6 | 26.5 | 24.9 | 21.1
299.15 K | 61.8 | 45.6 | 36.5 | 30.8 | 26.9 | 25 | 21.3
301.15 K | 62 | 46.1 | 37.6 | 32.8 | 27.4 | 25.8 | 22.3
303.15 K | 62.1 | 48.2 | 39.7 | 33.5 | 27.7 | 26.4 | 25.7
305.15 K | 62.5 | 49.1 | 40.7 | 34.8 | 28.6 | 27.4 | 26.1
307.15 K | 61.5 | 38.2 | 31.5 | 27.3 | 18.5 | 16.4 | 16.1
308.15 K | 62.1 | 39.3 | 31.9 | 27.4 | 18.6 | 16.6 | 16.3
309.15 K | 64.9 | 39.6 | 32.1 | 27.5 | 19 | 17.3 | 16.6
314.15 K | 65.2 | 42.9 | 33.2 | 28.5 | 19.9 | 17.8 | 16.9
333.15 K | 66.6 | 52.9 | 43.1 | 37.9 | 31.2 | 29.4 | 28.8
348.15 K | 66.9 | 53.2 | 43.6 | 38.6 | 34.5 | 31.5 | 29.9
373.15 K | 67.7 | 57.9 | 47.5 | 41.7 | 37.6 | 32.9 | 32.1
398.15 K | 68.1 | 58.9 | 50.5 | 44.6 | 39.6 | 36.1 | 33.2

From the NIST ThermoML archive (doi:10.1021/je800529x)
